Where only a bound is given, the exact number is not on record here.

Our source for the IC50 values is ChEMBL document CHEMBL5120899, “Sesquiterpene Lactones from Vernonia tufnelliae: Structural Characterization and Biological Evaluation” (J Nat Prod, 2022).

The assay deals with HeLa S3. Briefly: Cytotoxicity against human HeLa S3 cells assessed as cell viability incubated for 48 hrs by microscopic analysis. It is filed as functional, cell-based. Particulars: HeLa S3, 48 h.

In general, IC50 refers to the point on the concentration scale where inhibition reaches its midpoint. As for `C=C(CO)C(=O)O[C@H]1C/C(C)=C/CC/C(CO)=C/[C@H]2OC(=O)[C@@H](CN3C[C@@H](CO)[C@]4(O)O[C@H]5C/C(C)=C/CC/C(CO)=C/[C@H]6OC(=O)[C@]4(C3)[C@H]56)[C@H]12`, the half-maximal inhibitory concentration (IC50) was above 10 µM.

Take `C=C(CO)C(=O)O[C@H]1C/C(C)=C/CC/C(CO)=C/[C@H]2OC(=O)[C@@H](CN[C@H](CC(C)C)C(=O)O)[C@H]12`: the concentration for half-maximal inhibition (IC50) is above 10 µM.

Regarding `C=C(CO)C(=O)O[C@H]1C/C(C)=C/CC/C(CO)=C/[C@H]2OC(=O)[C@@H](CN[C@H](Cc3ccccc3)C(=O)O)[C@H]12`, the IC50 was above 10 µM.

For the molecule `COc1cc2oc(-c3ccc(O)c(O)c3)cc(=O)c2c(O)c1O`, the half-maximal inhibitory concentration (IC50) is above 10 µM.

In the case of `O=Cc1c[nH]c2ccccc12` [3-FORMYLINDOLE], the IC50 was above 10 µM.

As for `Oc1ccc(Cc2ccc(O)cc2)cc1`, the concentration for half-maximal inhibition (IC50) is above 10 µM.

Consider `C=C(CO)C(=O)O[C@H]1C/C(C)=C/CC/C(CO)=C/[C@H]2OC(=O)[C@@H](CN[C@@H](C(=O)O)C(C)C)[C@H]12`, for which the IC50 was above 10 µM.

Regarding `Oc1ccc(Cc2ccccc2O)cc1`, the IC50 is above 10 µM.

Consider `O=c1cc(-c2ccc(O)c(O)c2)oc2cc(O[C@@H]3O[C@H](CO)[C@@H](O)[C@H](O)[C@H]3O)cc(O)c12` [GALUTEOLIN], for which the IC50 was above 10 µM.

For the molecule `O=c1cc(-c2ccc(O)cc2)oc2cc(O)cc(O)c12` [APIGENIN], the half-maximal inhibitory concentration (IC50) was above 10 µM.

On to `C=C(CO)C(=O)O[C@H]1C/C(C)=C/CC/C(CO)=C/[C@H]2OC(=O)C(=C)[C@H]12`, for which the half-maximal inhibitory concentration (IC50) is above 10 µM.

Regarding `O=c1cc(-c2ccc(O)cc2)oc2cc(O[C@@H]3O[C@H](CO)[C@@H](O)[C@H](O)[C@H]3O)cc(O)c12` [APIGETRIN], the half-inhibitory concentration (IC50) is above 10 µM.

Turning to `C=C[C@@]1(C)C[C@@H](OC(=O)C(=C)CO)[C@H](C(=C)C(=O)OC/C2=C\[C@H]3OC(=O)C(=C)[C@@H]3[C@@H](OC(=O)C(=C)CO)C/C(C)=C/CC2)[C@@H](O)[C@@H]1C(=C)CO`, the IC50 is above 10 µM.
